What is called inhibition is the relative decrease from the control value, in per cent.

Results on 14 compounds are retold here after patent US9255094B2, “Pyrido[4,3-B]indoles and methods of use” (Medivation Technologies, Inc., priority 2009, dated 2016).

Assay [1] deals with human recombinant histamine H1 receptor (Homo sapiens, UniProt P35367). The experiment in a line: Histamine H1 radioligand binding assay ([3H]Pyrilamine). The following applies: receptor expressed in CHO cells; for inhibition at 0.1 µM: compound at 0.1 μM; for inhibition at 1 µM: compound at 1 μM. In a few lines:
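Membranes from CHO cells expressing the receptor, in 50 mM Tris-HCl pH 7.4 with 2 mM MgCl2, 100 mM NaCl and 250 mM sucrose, incubated with 1.2 nM [3H]pyrilamine for 180 min at 25° C; nonspecific binding defined with 1 μM pyrilamine.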

Assay [2] addresses T1, rat adrenergic α1A receptor (Rattus norvegicus, UniProt P43140).
T1 construct: from tissue; host or cells: Wistar Rat submaxillary glands
T1 sequence (P43140 1-466): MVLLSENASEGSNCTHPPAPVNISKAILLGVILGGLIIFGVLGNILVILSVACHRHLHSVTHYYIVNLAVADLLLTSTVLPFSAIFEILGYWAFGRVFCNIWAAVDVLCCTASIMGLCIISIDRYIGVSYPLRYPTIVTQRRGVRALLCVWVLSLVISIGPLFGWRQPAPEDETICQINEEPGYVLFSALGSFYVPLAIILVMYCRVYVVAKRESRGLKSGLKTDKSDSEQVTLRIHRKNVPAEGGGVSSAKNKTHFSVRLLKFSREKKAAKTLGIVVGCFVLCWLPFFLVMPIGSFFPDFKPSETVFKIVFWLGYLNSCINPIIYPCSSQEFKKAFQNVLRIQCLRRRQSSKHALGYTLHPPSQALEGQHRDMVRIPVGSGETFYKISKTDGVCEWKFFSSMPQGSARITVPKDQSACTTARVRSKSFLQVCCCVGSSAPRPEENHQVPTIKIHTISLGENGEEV
The experiment in a line: Adrenergic α1A radioligand binding assay ([3H]Prozosin). The following applies: compound at 0.1 μM; 0.25 nM [3H]Prozosin; Wistar Rat submaxillary glands; read-out: Percent Inhibition of ligand binding, Adrenergic (0.1 μM) a1A. The procedure:
To evaluate in radioligand binding assays the activity of compounds of the invention, rat adrenergic α1A receptor obtained from Wistar Rat submaxillary glands (Michel, A. D. et al., Br. J. Pharmacol. 98:883, 1989) in a modified Tris-HCl buffer (50 mM Tris-HCl buffer, pH 7.4, 0.5 mM EDTA) is used. Compounds of the invention are incubated with 0.25 nM [^3H]Prozosin for 60 min at 25° C. Non-specific binding is estimated in the presence of 10 μM phentolamine. Receptor proteins are filtered and washed, the filters are then counted to determine [^3H]Prozosin specifically bound. Compounds of the invention are screened at 1 μM or lower, using 1% DMSO as vehicle. Compounds of the invention are tested in this biochemical assay and percent inhibition of specific binding is determined.

Assay [3] addresses T2, human recombinant adrenergic α2C receptor (Homo sapiens, UniProt P18825).
T2 construct: expressed in transfected cells; host or cells: insect Sf9 cells
T2 sequence (P18825 1-462): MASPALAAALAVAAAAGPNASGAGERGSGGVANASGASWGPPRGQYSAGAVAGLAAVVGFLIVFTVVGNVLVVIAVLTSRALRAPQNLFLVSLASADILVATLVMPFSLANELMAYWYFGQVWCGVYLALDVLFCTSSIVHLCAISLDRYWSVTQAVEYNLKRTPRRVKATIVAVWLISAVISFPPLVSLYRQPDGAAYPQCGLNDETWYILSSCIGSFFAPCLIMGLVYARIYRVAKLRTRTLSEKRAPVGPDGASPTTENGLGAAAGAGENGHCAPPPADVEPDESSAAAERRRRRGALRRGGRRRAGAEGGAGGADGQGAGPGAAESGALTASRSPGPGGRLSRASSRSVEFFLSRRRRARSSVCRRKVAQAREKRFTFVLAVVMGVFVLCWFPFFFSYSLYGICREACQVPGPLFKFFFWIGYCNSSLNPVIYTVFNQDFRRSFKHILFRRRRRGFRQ
The experiment in a line: Adrenergic α2C radioligand binding assay ([3H]MK-912). The following applies: compound at 0.1 μM; 1 nM [3H]MK-912; insect Sf9 cells; read-out: Percent Inhibition of ligand binding, Adrenergic (0.1 μM) a2C. The procedure:
To evaluate in radioligand binding assays the activity of compounds of the invention, human recombinant adrenergic α2C receptor expressed in insect Sf9 cells (Uhlen S et al. J. Pharmacol. Exp. Ther. 271:1558, 1994) in a modified Tris-HCl buffer (50 mM Tris-HCl, pH 7.4, 12.5 mM MgCl2, 2 mM EDTA) is used. Compounds of the invention are incubated with 1 nM [^3H]MK-912 for 60 min at 25° C. Non-specific binding is estimated in the presence of 10 μM WB-4101. Receptor proteins are filtered and washed, the filters are then counted to determine [^3H]MK-912 specifically bound. Compounds are screened at 1 μM or lower, using 1% DMSO as vehicle. Compounds of the invention are tested in this biochemical assay and percent inhibition of specific binding is determined.

The target of assay [4] is T3, human recombinant serotonin (5-Hydroxytryptamine) 5-HT2C receptor (Homo sapiens, UniProt P28335).
T3 construct: expressed in transfected cells; host or cells: Chinese hamster ovary (CHO-K1) cells
T3 sequence (P28335 33-458): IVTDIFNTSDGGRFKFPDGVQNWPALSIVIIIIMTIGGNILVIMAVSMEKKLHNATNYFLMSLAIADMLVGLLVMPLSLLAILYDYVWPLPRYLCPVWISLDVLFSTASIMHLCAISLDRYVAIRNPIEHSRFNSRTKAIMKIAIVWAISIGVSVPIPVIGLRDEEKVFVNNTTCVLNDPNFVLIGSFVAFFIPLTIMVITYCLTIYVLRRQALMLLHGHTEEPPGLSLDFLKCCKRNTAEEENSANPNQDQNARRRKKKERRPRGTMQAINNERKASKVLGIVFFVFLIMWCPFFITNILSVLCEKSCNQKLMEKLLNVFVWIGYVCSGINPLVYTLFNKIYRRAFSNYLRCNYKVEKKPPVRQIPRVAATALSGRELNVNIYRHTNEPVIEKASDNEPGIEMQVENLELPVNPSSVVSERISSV
In words: Serotonin 5-HT2C radioligand binding assay ([3H]Mesulergine). The following applies: compound at 0.1 μM; 1 nM [3H]Mesulergine; CHO-K1 cells; read-out: Percent Inhibition of ligand binding, Serotonin (0.1 μM) 5-HT2C. The procedure:
Compounds of the invention were incubated with 1 nM [^3H]Mesulergine for 60 min at 25° C. Non-specific binding was estimated in the presence of 1 μM Mianserin. Receptor proteins were filtered and washed, the filters were then counted to determine [^3H]Mesulergine specifically bound. Compounds were screened at 1 μM or lower, using 1% DMSO as vehicle. Biochemical assay results are presented as the percent inhibition of specific binding in Table 4.

Chain of human recombinant histamine H1 receptor (P35367 whole entry): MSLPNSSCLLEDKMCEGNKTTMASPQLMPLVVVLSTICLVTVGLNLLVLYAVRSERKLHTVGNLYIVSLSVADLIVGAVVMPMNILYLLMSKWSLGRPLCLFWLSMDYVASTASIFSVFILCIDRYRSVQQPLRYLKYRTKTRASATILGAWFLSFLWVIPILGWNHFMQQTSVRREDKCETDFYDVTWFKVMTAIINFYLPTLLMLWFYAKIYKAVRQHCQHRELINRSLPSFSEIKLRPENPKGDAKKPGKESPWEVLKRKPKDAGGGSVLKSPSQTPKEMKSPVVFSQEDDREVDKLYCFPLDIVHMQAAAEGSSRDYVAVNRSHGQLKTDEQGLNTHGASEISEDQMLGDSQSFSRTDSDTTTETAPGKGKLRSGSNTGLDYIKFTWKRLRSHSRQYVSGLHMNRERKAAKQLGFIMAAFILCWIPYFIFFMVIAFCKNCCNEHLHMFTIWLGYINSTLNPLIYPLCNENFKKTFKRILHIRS

Turning to `CC[C@](O)(Cn1c2c(c3cc(C)ccc31)CN(C)CC2)c1ccc(F)cc1` [Compound 1-60, (R)-1-(2,8-Dimethyl-3,4-dihydro-1H-pyrido[4,3-b]indol-5(2H)-yl)-2-(4-fluorophenyl)butan-2-ol], the inhibition at 0.1 µM is 10% in assay [1], -8% in assay [2], 9% in assay [3] and 67% in assay [4].
In the same order, the values of `CC[C@](O)(Cn1c2c(c3cc(C)ccc31)CN(C)CC2)c1ccncc1` [Compound 1-63, (R)-1-(2,8-Dimethyl-3,4-dihydro-1H-pyrido[4,3-b]indol-5(2H)-yl)-2-(pyridine-4-yl)butan-2-ol] are 18%, 8%, 4% and 25%.
In the same order, the values of `CCCC[C@](O)(Cn1c2c(c3cc(Cl)ccc31)CN(C)CC2)c1ccc(F)cc1` [Compound 1-61, (R)-1-(8-Chloro-2-methyl-3,4-dihydro-1H-pyrido[4,3-b]indol-5(2H)-yl)-2-(4-fluorophenyl)hexan-2-ol] are -7%, 1%, 11% and 88%.
With `Cc1ccc2c(c1)c1c(n2CC(C)(O)c2ccc(O)cc2)CCN(C)C1` (stereo not shown) [Compound 1-15, 4-(1-(2,8-dimethyl-3,4-dihydro-1H-pyrido[4,3-b]indol-5(2H)-yl)-2-hydroxypropan-2-yl)phenol], the inhibition at 0.1 µM in assay [2] amounted to 36%; in assay [3], 5%.
In the same order, the values of `COc1ccc([C@](C)(O)Cn2c3c(c4cc(C)ccc42)CN(C)CC3)cc1` [Compound 1-20, (S)-1-(2,8-Dimethyl-3,4-dihydro-1H-pyrido[4,3-b]indol-5(2H)-yl)-2-(4-methoxyphenyl)propan-2-ol] are 13% and 28%.
On to `CC[C@@](O)(Cn1c2c(c3cc(C)ccc31)CN(C)CC2)c1ccc(F)cc1` [Compound 1-66, (S)-1-(2,8-dimethyl-3,4-dihydro-1H-pyrido[4,3-b]indol-5(2H)-yl)-2-(4-fluorophenyl)butan-2-ol], for which the inhibition at 0.1 µM in assay [1] is -12%; in assay [2] it was -1%; in assay [3], 18%; in assay [4], 84%.
On to `Cc1ccc2c(c1)c1c(n2CC(C)(C)c2ccncc2)CCN(C)C1` [Compound 1-49, 2,8-dimethyl-5-(2-methyl-2-(pyridin-4-yl)propyl)-2,3,4,5-tetrahydro-1H-pyrido[4,3-b]indole], for which the inhibition at 1 µM in assay [1] worked out at 94%. For the same compound, the inhibition at 0.1 µM was 13% in assay [2], 43% in assay [3] and 96% in assay [4].
With `CC[C@@](O)(Cn1c2c(c3cc(C)ccc31)CN(C)CC2)c1ccncc1` [Compound 1-62, (S)-1-(2,8-Dimethyl-3,4-dihydro-1H-pyrido[4,3-b]indol-5(2H)-yl)-2-(pyridine-4-yl)butan-2-ol], the inhibition at 0.1 µM in assay [1] was 3%; in assay [2], 10%; in assay [3], -5%; in assay [4], 33%.
In the same order, the values of `CCCC[C@@](O)(Cn1c2c(c3cc(Cl)ccc31)CN(C)CC2)c1ccc(F)cc1` [Compound 1-67, (S)-1-(8-chloro-2-methyl-3,4-dihydro-1H-pyrido[4,3-b]indol-5(2H)-yl)-2-(4-fluorophenyl)hexan-2-ol] are -2%, 2%, 13% and 51%.
In the same order, the values of `Cc1ccc2c(c1)c1c(n2CCc2ccc(C)nc2)CCN(CC(F)(F)F)C1` [Compound 1-65, 8-methyl-5-(2-(6-methylpyridin-3-yl)ethyl)-2-(2,2,2-trifluoroethyl)-2,3,4,5-tetrahydro-1H-pyrido[4,3-b]indole] are 11%, -10%, -1% and 6%.
Consider `CN1CCc2c(c3cc(Cl)c(Cl)cc3n2CC(C)(O)c2ccncc2)C1` (stereo not shown) [Compound 1-17, 1-(7,8-dichloro-2-methyl-3,4-dihydro-1H-pyrido[4,3-b]indol-5(2H)-yl)-2-(pyridin-4-yl)propan-2-ol], for which the inhibition at 0.1 µM in assay [2] came out at 0%; in assay [3], 39%.
In the same order, the values of `Cc1ccc2c(c1)c1c(n2CC(O)c2ccncc2)CCN(C)C1` (stereo not shown) [Compound 1-8, 2-(2,8-dimethyl-3,4-dihydro-1H-pyrido[4,3-b]indol-5(2H)-yl)-1-(pyridin-4-yl)ethanol] are 9% and 5%.
`Cc1ccc2c(c1)c1c(n2CC(C)c2ccncc2)CCN(C)C1` (stereo not shown) [Compound 1-46, 2,8-dimethyl-5-(2-(pyridin-4-yl)propyl)-2,3,4,5-tetrahydro-1H-pyrido[4,3-b]indole]: in assay [1], the inhibition at 1 µM was determined as 90%. The results for the inhibition at 0.1 µM in assay [2], in assay [3] and in assay [4] were 12%, 22% and 83%, respectively.
In the case of `CN1CCc2c(c3cc(Cl)ccc3n2CC(O)c2ccncc2)C1` (stereo not shown) [Compound 1-11, 2-(8-chloro-2-methyl-3,4-dihydro-1H-pyrido[4,3-b]indol-5(2H)-yl)-1-(pyridin-4-yl)ethanol], the figures for the inhibition at 0.1 µM in assay [2] and in assay [3] were 12% and 26%, respectively.
